How the values were obtained:
Test in all cases: relative viability (nuclei count vs DMSO), 5 days (fraction); higher = more cells survive
201T = tested on: 201T
In short: (§1)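 Relative viability is defined as nuclei in treated wells over nuclei in vehicle wells. Duplicate plates were run and medians reported. Lung cancer cell lines in 1536-well plates were dosed by pin tool one day after seeding, with one drug or with a fixed anchor-drug dose plus five library-drug doses (not always all listed) in √10 steps, and nuclei were counted after 5 days.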

EPLC-272H = tested on: EPLC-272H
In short: as §1

H3255 = tested on: H3255
In short: as §1

LCLC-103H = tested on: LCLC-103H
In short: as §1

LOU-NH91 = tested on: LOU-NH91
In short: as §1

NCI-H1355 = tested on: NCI-H1355
In short: as §1

NCI-H1651 = tested on: NCI-H1651
In short: as §1

NCI-H1666 = tested on: NCI-H1666
In short: as §1

NCI-H1734 = tested on: NCI-H1734
In short: as §1

NCI-H1792 = tested on: NCI-H1792
In short: as §1

NCI-H1793 = tested on: NCI-H1793
In short: as §1

NCI-H1915 = tested on: NCI-H1915
In short: as §1

NCI-H1944 = tested on: NCI-H1944
In short: as §1

NCI-H1975 = tested on: NCI-H1975
In short: as §1

NCI-H2023 = tested on: NCI-H2023
In short: as §1

NCI-H2342 = tested on: NCI-H2342
In short: as §1

NCI-H2405 = tested on: NCI-H2405
In short: as §1

NCI-H441 = tested on: NCI-H441
In short: as §1

NCI-H647 = tested on: NCI-H647
In short: as §1

RERF-LC-KJ = tested on: RERF-LC-KJ
In short: as §1

SK-LU-1 = tested on: SK-LU-1
In short: as §1

UMC-11 = tested on: UMC-11
In short: as §1

Compound: COCC1(CO)C(=O)C2CCN1CC2 (stereo not given) [PRIMA-1MET] + Cc1nc(Nc2ncc(C(=O)Nc3c(C)cccc3Cl)s2)cc(N2CCN(CCO)CC2)n1 [Dasatinib] (partner 0.075 µM)
- relative viability (201T; first compound 0.2 µM): 0.635
- relative viability (201T; first compound 0.6325 µM): 0.369
- relative viability (201T; first compound 2 µM): 0.59
- relative viability (201T; first compound 6.325 µM): 0.566
- relative viability (201T; first compound 20 µM): 0.582
- relative viability (EPLC-272H; first compound 2 µM): 0.349
- relative viability (EPLC-272H; first compound 6.325 µM): 0.347
- relative viability (EPLC-272H; first compound 20 µM): 0.0979
- relative viability (H3255; first compound 0.2 µM): 0.285
- relative viability (H3255; first compound 0.6325 µM): 0.439
- relative viability (H3255; first compound 2 µM): 0.487
- relative viability (H3255; first compound 6.325 µM): 0.373
- relative viability (H3255; first compound 20 µM): 0.28
- relative viability (LCLC-103H; first compound 0.2 µM): 0.566
- relative viability (LCLC-103H; first compound 0.6325 µM): 0.422
- relative viability (LCLC-103H; first compound 2 µM): 0.431
- relative viability (LCLC-103H; first compound 6.325 µM): 0.447
- relative viability (LCLC-103H; first compound 20 µM): 0.342
- relative viability (LOU-NH91; first compound 0.2 µM): 0.608
- relative viability (LOU-NH91; first compound 0.6325 µM): 0.508
- relative viability (LOU-NH91; first compound 2 µM): 0.569
- relative viability (LOU-NH91; first compound 6.325 µM): 0.578
- relative viability (LOU-NH91; first compound 20 µM): 0.483
- relative viability (NCI-H1355; first compound 0.2 µM): 0.793
- relative viability (NCI-H1355; first compound 0.6325 µM): 0.571
- relative viability (NCI-H1355; first compound 2 µM): 0.785
- relative viability (NCI-H1355; first compound 6.325 µM): 0.766
- relative viability (NCI-H1355; first compound 20 µM): 0.657
- relative viability (NCI-H1651; first compound 0.2 µM): 0.455
- relative viability (NCI-H1651; first compound 0.6325 µM): 0.468
- relative viability (NCI-H1651; first compound 2 µM): 0.423
- relative viability (NCI-H1651; first compound 6.325 µM): 0.415
- relative viability (NCI-H1651; first compound 20 µM): 0.432
- relative viability (NCI-H1666; first compound 0.2 µM): 0.801
- relative viability (NCI-H1666; first compound 0.6325 µM): 0.79
- relative viability (NCI-H1666; first compound 2 µM): 0.807
- relative viability (NCI-H1666; first compound 6.325 µM): 0.846
- relative viability (NCI-H1666; first compound 20 µM): 0.639
- relative viability (NCI-H1734; first compound 0.2 µM): 0.498
- relative viability (NCI-H1734; first compound 0.6325 µM): 0.303
- relative viability (NCI-H1734; first compound 2 µM): 0.426
- relative viability (NCI-H1734; first compound 6.325 µM): 0.384
- relative viability (NCI-H1734; first compound 20 µM): 0.0495
- relative viability (NCI-H1792; first compound 0.2 µM): 0.816
- relative viability (NCI-H1792; first compound 0.6325 µM): 0.717
- relative viability (NCI-H1792; first compound 2 µM): 0.811
- relative viability (NCI-H1792; first compound 6.325 µM): 0.883
- relative viability (NCI-H1792; first compound 20 µM): 0.754
- relative viability (NCI-H1793; first compound 0.2 µM): 0.431
- relative viability (NCI-H1793; first compound 0.6325 µM): 0.365
- relative viability (NCI-H1793; first compound 6.325 µM): 0.404
- relative viability (NCI-H1793; first compound 20 µM): 0.35
- relative viability (NCI-H1915; first compound 0.2 µM): 0.328
- relative viability (NCI-H1915; first compound 0.6325 µM): 0.284
- relative viability (NCI-H1915; first compound 6.325 µM): 0.269
- relative viability (NCI-H1915; first compound 20 µM): 0.272
- relative viability (NCI-H1944; first compound 0.2 µM): 0.225
- relative viability (NCI-H1944; first compound 0.6325 µM): 0.19
- relative viability (NCI-H1944; first compound 2 µM): 0.213
- relative viability (NCI-H1944; first compound 6.325 µM): 0.219
- relative viability (NCI-H1944; first compound 20 µM): 0.232
- relative viability (NCI-H1975; first compound 0.2 µM): 0.359
- relative viability (NCI-H1975; first compound 0.6325 µM): 0.349
- relative viability (NCI-H1975; first compound 2 µM): 0.366
- relative viability (NCI-H1975; first compound 6.325 µM): 0.375
- relative viability (NCI-H1975; first compound 20 µM): 0.19
- relative viability (NCI-H2023; first compound 0.2 µM): 0.601
- relative viability (NCI-H2023; first compound 0.6325 µM): 0.586
- relative viability (NCI-H2023; first compound 2 µM): 0.567
- relative viability (NCI-H2023; first compound 6.325 µM): 0.57
- relative viability (NCI-H2023; first compound 20 µM): 0.229
- relative viability (NCI-H2342; first compound 0.2 µM): 0.327
- relative viability (NCI-H2342; first compound 0.6325 µM): 0.305
- relative viability (NCI-H2342; first compound 2 µM): 0.347
- relative viability (NCI-H2342; first compound 6.325 µM): 0.295
- relative viability (NCI-H2342; first compound 20 µM): 0.333
- relative viability (NCI-H2405; first compound 0.2 µM): 0.197
- relative viability (NCI-H2405; first compound 0.6325 µM): 0.199
- relative viability (NCI-H2405; first compound 6.325 µM): 0.169
- relative viability (NCI-H2405; first compound 20 µM): 0.0902
- relative viability (NCI-H441; first compound 0.2 µM): 0.461
- relative viability (NCI-H441; first compound 0.6325 µM): 0.728
- relative viability (NCI-H441; first compound 2 µM): 0.544
- relative viability (NCI-H441; first compound 6.325 µM): 0.571
- relative viability (NCI-H441; first compound 20 µM): 0.134
- relative viability (NCI-H647; first compound 0.2 µM): 0.165
- relative viability (NCI-H647; first compound 0.6325 µM): 0.16
- relative viability (NCI-H647; first compound 2 µM): 0.156
- relative viability (NCI-H647; first compound 6.325 µM): 0.173
- relative viability (NCI-H647; first compound 20 µM): 0.0339
- relative viability (RERF-LC-KJ; first compound 0.2 µM): 0.759
- relative viability (RERF-LC-KJ; first compound 0.6325 µM): 0.833
- relative viability (RERF-LC-KJ; first compound 2 µM): 0.931
- relative viability (RERF-LC-KJ; first compound 6.325 µM): 0.895
- relative viability (RERF-LC-KJ; first compound 20 µM): 0.673
- relative viability (SK-LU-1; first compound 0.2 µM): 0.192
- relative viability (SK-LU-1; first compound 0.6325 µM): 0.177
- relative viability (SK-LU-1; first compound 2 µM): 0.186
- relative viability (SK-LU-1; first compound 6.325 µM): 0.155
- relative viability (SK-LU-1; first compound 20 µM): 0.0741
- relative viability (UMC-11; first compound 0.2 µM): 0.53
- relative viability (UMC-11; first compound 0.6325 µM): 0.466
- relative viability (UMC-11; first compound 2 µM): 0.504
- relative viability (UMC-11; first compound 6.325 µM): 0.464
- relative viability (UMC-11; first compound 20 µM): 0.444
